This note sets out measurements from US9273028B2, “Heterocyclic tyrosine kinase inhibitors” (Biogen MA Inc., priority 2010, dated 2016).

By pIC50 is commonly meant −log10 of the IC50, conventionally taken in molar units. Read a high pIC50 as a low IC50.

pIC50: −log10 of the molar value. Where only a bound is given, the exact number is not on record here.

The target in the test is T1, BTK (Homo sapiens, UniProt Q06187).
T1 construct: purchased Upstate 14-552
In words: In vitro BTK kinase assay (BTK-POLYGAT-LS). The format is biochemical. Particulars: IC50 (10 uM ATP). The procedure: In vitro BTK Kinase Assay
The purpose of the BTK in vitro assay is to determine compound potency against BTK through the measurement of IC50. […] For a typical assay, a 24 μL aliquot of a ATP/peptide master mix (final concentration; ATP 10 μM, polyGAT 100 nM) in kinase buffer (10 mM Tris-HCl pH 7.5, 10 mM MgCl2, 200 μM Na3PO4, 5 mM DTT, 0.01% Triton X-100, and 0.2 mg/ml casein) is added to each well. […] The assay is incubated for 30 minutes before being stopped with 28 μL of a 50 mM EDTA solution. […] The plate is covered and incubated for 45 minutes at room temperature.

T1 sequence (Q06187 whole entry): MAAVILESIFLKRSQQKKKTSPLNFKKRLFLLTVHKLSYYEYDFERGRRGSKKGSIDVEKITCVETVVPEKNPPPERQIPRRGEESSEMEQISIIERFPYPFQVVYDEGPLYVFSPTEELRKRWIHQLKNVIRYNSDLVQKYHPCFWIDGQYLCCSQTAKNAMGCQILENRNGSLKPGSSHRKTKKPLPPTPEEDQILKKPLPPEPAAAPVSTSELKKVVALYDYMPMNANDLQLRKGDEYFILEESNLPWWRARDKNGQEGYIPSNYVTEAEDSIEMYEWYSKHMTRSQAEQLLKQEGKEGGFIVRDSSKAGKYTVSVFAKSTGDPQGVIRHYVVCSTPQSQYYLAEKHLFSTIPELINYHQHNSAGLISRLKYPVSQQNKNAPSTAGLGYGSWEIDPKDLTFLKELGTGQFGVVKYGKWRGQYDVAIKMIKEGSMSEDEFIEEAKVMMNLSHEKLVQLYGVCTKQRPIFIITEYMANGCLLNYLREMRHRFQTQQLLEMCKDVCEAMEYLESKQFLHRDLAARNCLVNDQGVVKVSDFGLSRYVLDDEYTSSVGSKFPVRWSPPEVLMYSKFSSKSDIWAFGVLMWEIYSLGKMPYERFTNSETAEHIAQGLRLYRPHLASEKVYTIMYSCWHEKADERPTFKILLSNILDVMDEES

On to `O=C(CNc1cc(Cl)cc(Cl)c1)N1CC2CC(Nc3ncnc4[nH]ncc34)C1C2` (centres unmarked) [Compound 171], for which the pIC50 was above 7.00.

Take `O=C(CNc1cc(Cl)cc(Cl)c1)N1CCC[C@H](Nc2ncnc3[nH]cnc23)C1` [Compound 175]: the pIC50 is 6.00 to 7.00.

Molecule `O=C(CNc1cc(F)cc(C(F)(F)F)c1)N1CCC[C@H](Nc2ncnc3[nH]ncc23)C1` [Compound 177] had a negative logarithm of the IC50 (pIC50) of 5.00 to 6.00.

`O=C(CNc1cc(Cl)cc(C(F)(F)F)c1)N1CCC[C@H](Nc2ncnc3[nH]ncc23)C1` [Compound 178] gave a pIC50 of 5.00 to 6.00.

On to `O=C(CNc1ccccc1)N1CCCC(Nc2ncnc3[nH]ncc23)C1` (centres unmarked) [Compound 179], for which the negative-log IC50 (pIC50) is 5.00 to 6.00.

The molecule `O=C(CNc1cccc(F)c1)N1CCC[C@H](Nc2ncnc3[nH]ncc23)C1` [Compound 182] had a pIC50 below 5.00.

Regarding `O=C(CNc1ccc(Cl)cc1)N1CCC[C@H](Nc2ncnc3[nH]ncc23)C1` [Compound 184], the pIC50 is below 5.00.

For the molecule `O=C(CNc1cc(C(F)(F)F)cc(C(F)(F)F)c1)N1CCC[C@H](Nc2ncnc3[nH]ncc23)C1` [Compound 185], the pIC50 was 5.00 to 6.00.

In the case of `O=C(CNc1cc(C(F)(F)F)cc(C(F)(F)F)c1)N1CCC[C@H](Nc2ncnc3[nH]ncc23)C1` [Compound 186], the pIC50 is below 5.00.

In turn, `O=C(CNc1cc(C(F)(F)F)cc(C(F)(F)F)c1)N1CCC[C@H](Nc2ncnc3[nH]ccc23)C1` [Compound 187] showed a negative logarithm of the IC50 (pIC50) of 5.00 to 6.00.

Molecule `O=C(CNc1cccc(F)c1)N1CCC[C@H](Nc2ncnc3[nH]ccc23)C1` [Compound 188] showed a pIC50 of 5.00 to 6.00.

On to `O=C(CNc1cc(Cl)cc(Cl)c1)N1CC(Nc2ncnc3[nH]ccc23)Cc2ccccc21` (centres unmarked) [Compound 190], for which the negative-log IC50 (pIC50) was 6.00 to 7.00.

Take `O=C(CNc1cc(Cl)cc(Cl)c1)N1CC(Nc2ncnc3[nH]ncc23)Cc2ccccc21` (centres unmarked) [Compound 191]: the negative logarithm of the IC50 (pIC50) is 6.00 to 7.00.

With `O=C(CNc1ccc(F)cc1)N1CCC[C@H](Nc2ncnc3[nH]ccc23)C1` [Compound 193], the pIC50 is below 5.00.

Take `O=C(CNc1ccccc1F)N1CCC[C@H](Nc2ncnc3[nH]ccc23)C1` [Compound 194]: the pIC50 was below 5.00.

In turn, `O=C(CNc1ccccc1C(F)(F)F)N1CCC[C@H](Nc2ncnc3[nH]ncc23)C1` [Compound 195] had a pIC50 below 5.00.

Molecule `O=C(CNc1ccccc1C(F)(F)F)N1CCC[C@H](Nc2ncnc3[nH]ccc23)C1` [Compound 197] gave a pIC50 below 5.00.

`O=C(CNc1ccc(C(F)(F)F)cc1)N1CCC[C@H](Nc2ncnc3[nH]ncc23)C1` [Compound 198] had a pIC50 below 5.00.

On to `O=C(CNc1ccccc1Cl)N1CCC[C@H](Nc2ncnc3[nH]ccc23)C1` [Compound 199], for which the pIC50 was below 5.00.

Turning to `O=C(CNc1cccc(Cl)c1)N1CCC[C@H](Nc2ncnc3[nH]ncc23)C1` [Compound 201], the pIC50 was 5.00 to 6.00.

In the case of `O=C(CNc1ccccc1Cl)N1CCC[C@H](Nc2ncnc3[nH]ncc23)C1` [Compound 202], the pIC50 is below 5.00.

`O=C(CNc1ccccc1F)N1CCC[C@H](Nc2ncnc3[nH]ncc23)C1` [Compound 203] showed a pIC50 below 5.00.

`O=C(CNc1ccc(C(F)(F)F)cc1)N1CCC[C@H](Nc2ncnc3[nH]ccc23)C1` [Compound 204]: the pIC50 was below 5.00.

`O=C(CNc1ccc(F)cc1)N1CCC[C@H](Nc2ncnc3[nH]ncc23)C1` [Compound 205] showed a pIC50 below 5.00.

Molecule `O=C([C@H](Nc1cc(Cl)cc(Cl)c1)C1CC1)N1CCC[C@H](Nc2ncnc3[nH]ccc23)C1` [Compound 206] had a negative-log IC50 (pIC50) of 5.00 to 6.00.

As to `O=C([C@H](Nc1cc(Cl)cc(Cl)c1)C1CC1)N1CCC[C@@H](Nc2ncnc3[nH]ccc23)C1` [Compound 207], the pIC50 was 6.00 to 7.00.

Take `C[C@@H](Nc1cc(Cl)cc(Cl)c1)C(=O)N1CCC[C@H](Nc2ncnc3[nH]ccc23)C1` [Compound 208]: the negative logarithm of the IC50 (pIC50) was 6.00 to 7.00.

Regarding `CN(c1ncnc2[nH]ncc12)[C@@H]1CCCN(C(=O)CNc2cc(Cl)cc(Cl)c2)C1` [Compound 211], the negative-log IC50 (pIC50) was above 7.00.

In turn, `CN(c1ncnc2[nH]ncc12)[C@H]1CCCN(C(=O)CNc2cc(Cl)cc(Cl)c2)C1` [Compound 212] gave a pIC50 of 6.00 to 7.00.

Turning to `CCCN(CC(C)C)S(=O)(=O)c1ccccc1NCC(=O)N1CC[C@@H](C)[C@H](Nc2ncnc3[nH]ncc23)C1` [Compound 213], the negative logarithm of the IC50 (pIC50) is below 5.00.

`O=C(CNc1cc(F)cc(Cl)c1)N1CCC[C@@H](Nc2ncnc3[nH]ncc23)C1` [Compound 216] had a pIC50 of 6.00 to 7.00.

`CC(C)CN(CC(C)C)S(=O)(=O)c1ccccc1NCC(=O)N1CCC[C@@H](Nc2ncnc3[nH]ccc23)C1` [Compound 218] showed a pIC50 of 6.00 to 7.00.

In turn, `CC(C)CN(CC(C)C)S(=O)(=O)c1ccccc1NCC(=O)N1CCC[C@H](Nc2ncnc3[nH]ccc23)C1` [Compound 219] had a negative logarithm of the IC50 (pIC50) below 5.00.

Turning to `O=C(CNc1ccccc1S(=O)(=O)N1CCCCC1)N1CCC[C@@H](Nc2ncnc3[nH]ccc23)C1` [Compound 221], the pIC50 is 6.00 to 7.00.

The molecule `O=C([C@H](Nc1cc(F)cc(Cl)c1)C1CC1)N1CCC[C@H](Nc2ncnc3[nH]ncc23)C1` [Compound 223] had a negative logarithm of the IC50 (pIC50) of 5.00 to 6.00.

`NC(=O)c1cnc2[nH]ccc2c1NC1CCCN(C(=O)NCc2cc(Cl)cc(Cl)c2)C1` (centres unmarked) [Compound 224] gave a pIC50 above 7.00.

Molecule `O=C(Nc1cc(Cl)cc(Cl)c1)C(=O)N1CCCC(Nc2ncnc3[nH]ccc23)C1` (centres unmarked) [Compound 225] had a negative-log IC50 (pIC50) below 5.00.

For `NC(=O)c1cnc2[nH]ccc2c1N[C@@H]1CCCN(C(=O)CNc2cc(Cl)cc(Cl)c2)[C@@H]1C(F)(F)F` [Compound 227], the pIC50 was above 7.00.

Take `NC(=O)c1cnc2[nH]ccc2c1NC1CCCN(C(=O)CNc2cc(Cl)cc(Cl)c2)C1C(F)(F)F` (centres unmarked) [Compound 228]: the pIC50 is above 7.00.

Consider `NC(=O)c1cnc2[nH]ccc2c1NC1CCCN(C(=O)CNc2cc(F)cc(Cl)c2)C1` (centres unmarked) [Compound 229], for which the negative logarithm of the IC50 (pIC50) is above 7.00.

The molecule `CN1CCN(C(=O)c2cnc3[nH]ccc3c2N[C@@H]2CCCN(C(=O)CNc3cc(Cl)cc(Cl)c3)C2)CC1` [Compound 230] had a pIC50 of 6.00 to 7.00.

Take `Nc1ncnc2c1ccn2C1CCCN(C(=O)CNc2cc(Cl)cc(Cl)c2)C1` (centres unmarked) [Compound 231]: the pIC50 was 5.00 to 6.00.

`Nc1ncnc2c1cnn2C1CCCN(C(=O)CNc2cc(Cl)cc(Cl)c2)C1` (centres unmarked) [Compound 232]: the pIC50 was below 5.00.

In the case of `Nc1ncnc2c1ncn2C1CCCN(C(=O)CNc2cc(Cl)cc(Cl)c2)C1` (centres unmarked) [Compound 233], the pIC50 was below 5.00.
